Laboratory results: patent US7989008B2, “Cosmetic preparations designed to reduce unsightly cellulite” (Menarini Industrie Farmaceutiche Riunite S.R.L., priority 2007, dated 2011)

Tested on: tissue affected by cellulite (surface temperature of the skin)
Test: Liquid-crystal thermography, indirect instrumental assessment of treatment efficacy
Type: in vivo, women
Details: after repeated treatment
From the text: Liquid-crystal thermography was used to conduct an indirect instrumental assessment of the efficacy of the treatment. On the basis of the surface temperature, this technique distinguishes between normal adipose tissue and tissue affected by cellulite, in which the reduced blood flow causes progressive cooling of the skin, proportional to the severity of the cosmetic problem. After repeated treatment with compound (I), the difference in temperature between the normal skin area (unaffected by cellulite) and the affected area had reduced considerably, about 70% of the temperature reduction previously observed having been eliminated. The effects of treatment with compounds A and B were evaluated for comparison purposes.

Row | Compound | temperature difference between normal skin area and area affected by cellulite eliminated
1 | CC1(C)C(=O)NN=C1c1ccc(NC2=C(Cc3ccc(F)cc3)C(=O)CCC2)cc1F [Compound B, 5-{4-[2-(4-fluoro-benzyl)-3-oxo-cyclohex-1-enylamine]-2-fluoro-phenyl}-4,4-dimethyl-2,4-dihydro-pyrazol-3-one] | ~50%
2 | CC1(C)C(=O)NN=C1c1ccc(NC2=C(Cc3cccc(C#N)c3)C(=O)CCC2)c(F)c1F [Compound A, 3-[2-[4-(4,4-dimethyl-5-oxo-4,5-dihydro-1-H-pyrazol-3-yl)-2,3-difluoro-phenylamine]-6-oxocyclohex-1-enylmethyl]-benzonitrile] | ~50%
3 | CC1(C)C(=O)NN=C1c1ccc(NC2=C(Cc3ccc(F)cc3)C(=O)CCC2)c(F)c1F [Compound of formula (I), 5-{4-[2-(4-fluoro-benzyl)-3-oxo-cyclohex-1-enylamine]-2,3-difluoro-phenyl}-4,4-dimethyl-2,4-dihydropyrazol-3-one] | about 70%
